Measurements: patent US20100055169A1, “CATIONIC LIPIDS AND USES THEREOF” (ABBOTT LABORATORIES, priority 2008, published 2010)
Values belong to the compound of their own block, whether it stands above or below them.

What was measured:
Assay type in all cases: physicochemical
Settings in all cases: lipid:siRNA 25:1
[1] = RiboGreen assay of siRNA encapsulation efficiency, in vivo formulations of Lipid-Based Particles
Description: (§1) RNA concentration and encapsulation efficiency were determined using a Quant-iT® Ribogreen RNA reagent and kit available from Invitrogen. The siRNA was released from the Lipid-Based Particle using one of the following reagents: ethanol, Triton X-100, or phenol/chloroform. The siRNA concentration is quantified using fluorescent reading at 480 nm/520 nm.
The lipid solution was prepared (10 mg/ml) by dissolving the lipid in 200 proof ethanol. The lipid mixture solution is prepared according to the above composition in Table 5.
An siRNA (TetR_ODC—12, G.G.G.G.A.A.A.G.C.U.G.G.C.A.A.G.A.U.U.U.U SEQ ID NO: 1) (ThermoFisher) solution is prepared in a concentration of 10 mg/ml by dissolving 10 mg siRNA in 1 ml of DNAse/RNAse-free distilled water.
(§2) A round bottom flask was submerged into a 65° C. water bath. Citrate buffer (37.5 ml) of pH 4.0 was pipetted into the flask. The solution was stirred by a magnetic stirring bar at a speed of 900 rpm. Both the pH 4.0 citrate buffer and the lipid solution were pre-warmed in the 65° C. water bath for about 3 minutes. A siRNA solution (0.5 ml) was pipetted into the pH 4.0 citrate buffer. The 12.5 ml lipid mixture solution was injected through a 27 gauge needle into the citrate buffer in about 30 seconds. The needle tip was inserted into the solution during the injection. The resulting solution was stirred for 5 minutes at a speed of 900 rpm. The flask was pulled up from the water bath and a 50 ml pH 7.4 PBS buffer was added into the flask. The final solution was further mixed at a speed of 900 rpm for 5 minutes. For the diafiltration process, a dialysis filter (Millipore, 100K, Cat#PXB100C50) was used to remove ethanol in the above solution. When the volume was reduced to 20 ml during the initial diafiltration, 20 ml of pH 7.4 PBS was added to the sample solution. The diafiltration was continued until the volume was reduced to 20 ml. The diafiltration process was repeated 4 times. The volume of the sample solution was reduced to about 12 ml and pH 7.4 PBS was added to make the final volume of 15 ml. The 15 ml solution was filtered sequentially through the 0.45 and 0.22 μm sterile PVDF membrane filters (Millipore) and immediately transferred into a sterile vial.

[2] = Particle sizing by dynamic light scattering (DynaPro plate reader), in vitro formulations
Description: (§3) The siRNA concentrations were measured using Quanti-iT RiboGreen RNA reagent (Molecular Probes, (R11490)). Vesicle sizes were characterized by dynamic light scattering with a DynaPro™ Plate Reader (Wyatt Technology) in 96-well half-area UV plate (Coring) after diluting the formulation sample (20 μL) in phosphate buffered saline (80 μL) at a pH of about 7-8. A 1% agarose gel-based assay was used for analyzing nuclease degradation and protection. Encapsulation efficiency (EE) was calculated using data obtained from a RiboGreen assay.
Particle sizes and size distributions (PDI) were characterized by using dynamic light scattering (DLS). A DLS plate reader (Dynapro™, Wyatt Technology) was used for the DLS measurement. This DLS plate reader uses an 830 nm laser and the scattering angle is 158°. It also can control temperature from 4° C. to 70° C. A 96-well format was employed for the samples.
Samples for DLS analysis were prepared by mixing 20 μL of each sample stock solution with 80 μL PBS directly in the 96-well plate (#3697, Corning). Sample mixing was accomplished using a microplate shaker (Orbis, Mikura Ltd.). Plates were read at 20° C. with an acquisition time of 50 seconds for each sample, and data was analyzed with Wyatt Technology's Dynamics V6 software. To rule out potential multiple scattering artifacts, a second plate at 4-fold reduced sample concentrations was independently prepared by mixing 5 μL stock solutions with 95 μL PBS. Under our experimental conditions the results at the two concentrations were very similar, and the final reported result for each sample represents the average of values obtained from the two plates.

[3] = Particle sizing assay (Zetasizer Nano ZS), in vivo formulations
Description: as §2
For measurements of particle sizes and size distributions (PDI), lipid-based particles were prepared as described above. The particle solution (60 μL) was pipetted into a disposable cuvette (UVette, Eppendorf, cat#952010051) and measured in the “General Purpose” mode. Attenuator and position were optimized by the device. Measurements were performed using a Zetasizer Nano ZS (Malvern Instruments) equipped with a 4 mW He—Ne laser at a wavelength of 633 nm at 25° C. Scattered light was detected at a 173° backward scattering angle. The viscosity and refractive index of water at 25° C. was used for data analysis with the Dispersion Technology Software 5.00 (Malvern Instruments).

[4] = RiboGreen assay of siRNA encapsulation efficiency, in vitro formulations of Lipid-Based Particles
Description: The mixing solution of cationic lipids, cholesterol, non-cationic lipids and PEG-lipids was prepared in ethanol (total concentration at 10 mg/mL). siSTABLE (purchased from ThermoFisher) (sense-5′ GGGGAAAGCUGGCAAGAUUUU-3′SEQ ID NO. 1, antisense-5′-AAUCUUGCCAGCUUUCCCCUU-3′ SEQ ID NO: 2) % stock solution was prepared in 10 mg/mL of solution by dissolving 10 mg siRNA in 1 mL of RNAse-free UltraPure Water. The calculated amount of siRNA solution was added to 1 mL of citrate buffer (pH 4.0, 20 mM), to provide an siRNA concentration of 0.2 mg/mL, and warmed to 60 C. The calculated amount of lipid solution was warmed to 60 C, transferred to a 0.5 mL syringe with 28½ gauge needle, and injected into the citrate buffer with stirring at 60 C. After 3 minutes, 3 mL of PBS solution at room temperature (pH 7.4) was added into the lipid mixture with stirring. The Lipid-Based Particle solution was cooled to room temperature.
as §3, §1

[5] = in vivo formulation A: Cationic lipid/Example 73/DSPC/Chol 45/10/15/30 wt %
[6] = in vitro formulation b: Cationic lipid/PEG-cholesterol/DSPC/Chol 45/10/15/30 wt %
[7] = in vitro formulation a: Cationic lipid/Example 73/DSPC/Chol 45/10/15/30 wt %
[8] = in vivo formulation I: Cationic lipid/PEG-DPPE/DSPC/Chol 45/10/15/30 wt %
[9] = in vivo formulation J: Cationic lipid/PEG-DSPE/DSPC/Chol 45/10/15/30 wt %
[10] = in vivo formulation L: Cationic lipid/PEG-DPG/DSPC/Chol 45/10/15/30 wt %

- % Encapsulation Efficiency [1, 5]: 74%
- Size [2, 6]: 96.3 nm
- Size [3, 5]: 108 nm
- Size distribution (PDI) [3, 5]: (0.18)
Compound: CCCCC/C=C\C/C=C\CCCCCCCCOCC(CCN1CCCCC1)OCCCCCCCC/C=C\C/C=C\CCCCC (stereo not shown) [Example 1, 1-{3,4-bis[(9Z,12Z)-octadeca-9,12-dienyloxy]butyl}piperidine]

- Size [2, 7]: 192 nm
- Size [2, 6]: 113.4 nm
- % Encapsulation Efficiency [4, 7]: 97.2%
- % Encapsulation Efficiency [4, 6]: 96.9%
- Size [3, 5]: 116 nm
- Size distribution (PDI) [3, 5]: (0.12)
Compound: CCCCC/C=C\C/C=C\CCCCCCCCOCC(CCN(CC)CC)OCCCCCCCC/C=C\C/C=C\CCCCC (stereo not shown) [Example 3, N,N-diethyl-3,4-bis[(9Z,12Z)-octadeca-9,12-dienyloxy]butan-1-amine]

- Size [2, 6]: 136.6 nm
- % Encapsulation Efficiency [4, 6]: 97.5%
Compound: CCCCC/C=C\C/C=C\CCCCCCCCOCC(CCN(C)C)OCCCCCCCC/C=C\C/C=C\CCCCC (stereo not shown) [Example 4, N,N-dimethyl-3,4-bis[(9Z,12Z)-octadeca-9,12-dienyloxy]butan-1-amine]

- Size [2, 7]: 157 nm
- Size distribution (PDI) [2, 7]: 0.070
Compound: CCCCC/C=C\C/C=C\CCCCCCCCOCC(CCN1CCN(c2ccccc2)CC1)OCCCCCCCC/C=C\C/C=C\CCCCC (stereo not shown) [Example 5, 1-{3,4-bis[(9Z,12Z)-octadeca-9,12-dienyloxy]butyl}-4-phenylpiperazine]

- Size [2, 7]: 178 nm
- Size distribution (PDI) [2, 7]: 0.16
Compound: CCCCC/C=C\C/C=C\CCCCCCCCOCC(CCN1CCN(C)CC1)OCCCCCCCC/C=C\C/C=C\CCCCC (stereo not shown) [Example 6, 1-{3,4-bis[(9Z,12Z)-octadeca-9,12-dienyloxy]butyl}-4-methylpiperazine]

- Size [2, 7]: 130 nm
Compound: CCCCC/C=C\C/C=C\CCCCCCCCOCC(CCN1CCN(c2ccccc2OC)CC1)OCCCCCCCC/C=C\C/C=C\CCCCC (stereo not shown) [Example 8, 1-{3,4-bis[(9Z,12Z)-octadeca-9,12-dienyloxy]butyl}-4-(2-methoxyphenyl)piperazine]

- Size [2, 7]: 161 nm
- Size distribution (PDI) [2, 7]: 0.168
Compound: CCCCC/C=C\C/C=C\CCCCCCCCOCC(CCN(C)CCc1ccccn1)OCCCCCCCC/C=C\C/C=C\CCCCC (stereo not shown) [Example 10, N-{3,4-bis[(9Z,12Z)-octadeca-9,12-dienyloxy]butyl}-N-methyl-N-(2-pyridin-2-ylethyl)amine]

- Size [2, 7]: 154 nm
- Size distribution (PDI) [2, 7]: 0.2
Compound: CCCCC/C=C\C/C=C\CCCCCCCCOCC(CCN(C)Cc1ccccc1)OCCCCCCCC/C=C\C/C=C\CCCCC (stereo not shown) [Example 11, N-benzyl-N-{3,4-bis[(9Z,12Z)-octadeca-9,12-dienyloxy]butyl}-N-methylamine]

- Size [2, 7]: 70.9 nm
Compound: CCCCC/C=C\C/C=C\CCCCCCCCOCC(CCN1CCC(N(C)C)CC1)OCCCCCCCC/C=C\C/C=C\CCCCC (stereo not shown) [Example 16, 1-{3,4-bis[(9Z,12Z)-octadeca-9,12-dienyloxy]butyl}-N,N-dimethylpiperidin-4-amine]

- Size [2, 7]: 104 nm
- % Encapsulation Efficiency [4, 7]: 94.1%
Compound: CCCCC/C=C\C/C=C\CCCCCCCCOCC(CCN(CCOC)CCOC)OCCCCCCCC/C=C\C/C=C\CCCCC (stereo not shown) [Example 18, N,N-bis(2-methoxyethyl)-3,4-bis [(9Z,12Z)-octadeca-9,12-dienyloxy]butan-1-amine]

- Size [2, 7]: 152 nm
- % Encapsulation Efficiency [4, 7]: 94.2%
Compound: CCCCC/C=C\C/C=C\CCCCCCCCOCC(CCN1CCC(OC)CC1)OCCCCCCCC/C=C\C/C=C\CCCCC (stereo not shown) [Example 19, 1-{3,4-bis[(9Z,12Z)-octadeca-9,12-dienyloxy]butyl}-4-methoxypiperidine]

- Size [2, 7]: 146 nm
- % Encapsulation Efficiency [4, 7]: 97.2%
- Size [3, 5]: 100 nm
- Size distribution (PDI) [3, 5]: (0.09)
Compound: CCCCC/C=C\C/C=C\CCCCCCCCOC[C@@H](CCN1CCCC1)OCCCCCCCC/C=C\C/C=C\CCCCC [Example 20, 1-{(3R)-3,4-bis[(9Z,12Z)-octadeca-9,12-dienyloxy]butyl}pyrrolidine]

- Size [2, 7]: 128 nm
- % Encapsulation Efficiency [4, 7]: 96.9%
- Size [3, 5]: 103 nm
- Size distribution (PDI) [3, 5]: (0.06)
Compound: CCCCC/C=C\C/C=C\CCCCCCCCOC[C@H](CCN1CCCC1)OCCCCCCCC/C=C\C/C=C\CCCCC [Example 21, 1-{(3S)-3,4-bis[(9Z,12Z)-octadeca-9,12-dienyloxy]butyl}pyrrolidine]

- Size [2, 7]: 130 nm
- % Encapsulation Efficiency [4, 7]: 86%
Compound: CCCCC/C=C\C/C=C\CCCCCCCCOC[C@@H](CCN(CC)CC)OCCCCCCCC/C=C\C/C=C\CCCCC [Example 22, N-{(3R)-3,4-bis[(9Z,12Z)-octadeca-9,12-dienyloxy]butyl}-N,N-diethylamine]

- Size [2, 7]: 128 nm
- % Encapsulation Efficiency [4, 7]: 97.2%
Compound: CCCCC/C=C\C/C=C\CCCCCCCCOC[C@H](CCN(CC)CC)OCCCCCCCC/C=C\C/C=C\CCCCC [Example 23, N-{(3S)-3,4-bis[(9Z,12Z)-octadeca-9,12-dienyloxy]butyl}-N,N-diethylamine]

Compound: CCCCC/C=C\C/C=C\CCCCCCCCOCC(CCOCCN1CCN(C)CC1)OCCCCCCCC/C=C\C/C=C\CCCCC (stereo not shown) [Example 28, 1-(2-{3,4-bis[(9Z,12Z)-octadeca-9,12-dienyloxy]butoxy}ethyl)-4-methylpiperazine]
- % Encapsulation Efficiency [1, 8]: 99%
- % Encapsulation Efficiency [1, 9]: 99%
- % Encapsulation Efficiency [1, 10]: 99%
- % Encapsulation Efficiency [4, 6]: 94.3%
- Size [3, 8]: 107.1 nm
- Size distribution (PDI) [3, 8]: (0.025)
- Size [3, 9]: 80.2 nm
- Size distribution (PDI) [3, 9]: (0.026)
- Size [3, 10]: 87 nm
- Size distribution (PDI) [3, 10]: (0.012)

Compound: CCCCC/C=C\C/C=C\CCCCCCCCOCC(CCOCCN1CCCC1)OCCCCCCCC/C=C\C/C=C\CCCCC (stereo not shown) [Example 31, 1-(2-{3,4-bis[(9Z,12Z)-octadeca-9,12-dienyloxy]butoxy}ethyl)pyrrolidine]
- % Encapsulation Efficiency [1, 5]: 93.3%
- % Encapsulation Efficiency [4, 6]: 96.2%
- Size [3, 5]: 136 nm
- Size distribution (PDI) [3, 5]: (0.0923)
